The results in this text go back to patent publication US20240150321A1, “PYRAZOLYLSULFONAMIDE COMPOUNDS AND THEIR USE IN THERAPY” (HOTSPOT THERAPEUTICS, INC., priority 2022, published 2024).

The subject of test [1] is NF-kB reporter in Jurkat cells. The test can be described thus: NF-kB reporter assay in Jurkat cells stimulated with aCD3/aCD28/PMA. The format is cell-based. Conditions: Homo sapiens, read-out: NF-kB Reporter Assay IC50. The procedure, abridged: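 Jurkat cells (25,000/well, serum-free RPMI) were pre-incubated 1 h at 37° C with serially diluted compound, then stimulated 4 h with aCD3/aCD28/PMA at final […]. NF-kB reporter activity was read by One-Glo luminescence; IC50 values reported.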

A further test addresses Avi-tagged FL MALT-1 (Homo sapiens (Human), UniProt Q9UDY8). Kind of test: MALT-1 Fluorogenic Peptide Cleavage Assay (MALT1 inhibition assay). It is filed as biochemical. The following applies: Ac-LRSR-AMC peptide substrate, 30 min pre-incubation, 90 min reaction at room temperature. The procedure, abridged: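 Full-length Avi-tagged human MALT-1 (40 nM working stock) pre-incubated 30 min at RT with compound in 25 mM HEPES pH 6.89, 660 mM sodium citrate, 1 mM TCEP, […], 0.05% CHAPS, 2% DMSO. Ac-LRSR-AMC added at Km (50 μM working stock) or 10×Km (280 μM working stock); 90 min at RT, AMC fluorescence (ex 342/em 441 nm), IC50 from % inhibition curves.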

Setting [2] is: Jurkat cells, 1 hr compound pre-incubation, aCD3/aCD28/PMA stimulation 4 hr, One-Glo readout.

pIC50: −log10 of the molar value. Read-outs that look alike come from different tables or passages of the source.

Chain of Avi-tagged FL MALT-1 (Q9UDY8 whole entry): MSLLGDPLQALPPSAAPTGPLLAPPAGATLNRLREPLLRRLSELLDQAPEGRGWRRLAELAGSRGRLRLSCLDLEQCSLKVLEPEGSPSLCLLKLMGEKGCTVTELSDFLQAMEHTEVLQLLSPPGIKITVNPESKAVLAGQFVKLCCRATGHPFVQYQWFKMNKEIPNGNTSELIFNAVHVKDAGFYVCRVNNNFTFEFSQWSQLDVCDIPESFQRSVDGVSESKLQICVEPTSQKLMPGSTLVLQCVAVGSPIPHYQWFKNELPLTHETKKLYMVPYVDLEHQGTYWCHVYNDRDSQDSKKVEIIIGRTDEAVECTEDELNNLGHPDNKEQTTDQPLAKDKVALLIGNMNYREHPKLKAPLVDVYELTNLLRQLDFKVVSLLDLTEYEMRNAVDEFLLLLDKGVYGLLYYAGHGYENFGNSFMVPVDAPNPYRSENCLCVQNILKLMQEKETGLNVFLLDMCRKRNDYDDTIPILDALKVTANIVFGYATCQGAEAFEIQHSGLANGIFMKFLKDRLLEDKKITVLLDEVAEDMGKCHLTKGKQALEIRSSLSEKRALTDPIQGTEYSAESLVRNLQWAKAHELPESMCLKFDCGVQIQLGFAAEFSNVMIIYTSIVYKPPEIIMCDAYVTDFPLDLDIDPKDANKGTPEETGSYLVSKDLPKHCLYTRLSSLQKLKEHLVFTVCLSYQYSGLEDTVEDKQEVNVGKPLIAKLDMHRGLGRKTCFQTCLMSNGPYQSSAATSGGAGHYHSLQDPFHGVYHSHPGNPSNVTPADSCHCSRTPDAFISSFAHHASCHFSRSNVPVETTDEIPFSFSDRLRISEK

As a reminder, the pIC50 is −log10 of the IC50, conventionally taken in molar units. With `COc1ccc2cnn(C)c2c1NS(=O)(=O)c1cnn(-c2cc(N3CC4CC3C4)ccn2)c1` [Compound I-432, 1-(4-(2-azabicyclo[2.1.1]hexan-2-yl)pyridin-2-yl)-N-(6-methoxy-1-methyl-1H-indazol-7-yl)-1H-pyrazole-4-sulfonamide], the pIC50 in test [1] (setting [2]) was above 6.40; at Avi-tagged FL MALT-1, 6.00 to 6.40.

As to `CN(C)c1ccnc(-n2cc(S(=O)(=O)Nc3cccc4cnn(C)c34)cn2)c1` [Compound I-437, 1-[4-(dimethylamino)pyridin-2-yl]-N-(1-methylindazol-7-yl)pyrazole-4-sulfonamide], the pIC50 in test [1] (setting [2]) was above 6.40; on Avi-tagged FL MALT-1 it was below 5.60.

As to `Cn1ncc2cccc(NS(=O)(=O)c3cnn(-c4cc(N5CC[C@@H](F)C5)ccn4)c3)c21` [Compound I-430, 1-{4-[(3R)-3-fluoropyrrolidin-1-yl]pyridin-2-yl}-N-(1-methylindazol-7-yl)pyrazole-4-sulfonamide], the pIC50 was above 6.40 in test [1] (setting [2]) and below 5.60 on Avi-tagged FL MALT-1.

Turning to `COCC(F)(F)c1ccnc(-n2cc(S(=O)(=O)Nc3cccc4cnn(C)c34)cn2)c1` [Compound I-268], the pIC50 in test [1] (setting [2]) is above 6.40; at Avi-tagged FL MALT-1 it was below 5.60.

For `Cc1n[nH]c2cccc(NS(=O)(=O)c3cnn(-c4ccc(C5CC5)cn4)c3)c12` [Compound I-106, 1-(5-cyclopropylpyridin-2-yl)-N-(3-methyl-1H-indazol-4-yl)-1H-pyrazole-4-sulfonamide], the pIC50 in test [1] (setting [2]) is above 6.40; on Avi-tagged FL MALT-1, below 5.60.

In the case of `CCOc1ccc2cnn(C)c2c1NS(=O)(=O)c1cnn(-c2ccnc(C(F)(F)F)c2)c1` [Compound I-9, N-(6-Ethoxy-1-Methyl-1H-Indazol-7-yl)-1-(2-(Trifluoromethyl)Pyridin-4-yl)-1H-Pyrazole-4-Sulfonamide], the values for the pIC50 (in test [1] (setting [2]); against Avi-tagged FL MALT-1) were 6.00 to 6.40 and at least 6.40, respectively.

For the compound `Cn1ncc2cccc(NS(=O)(=O)c3cnn(-c4cc(N5CCC(C)(C)C5)ccn4)c3)c21` [Compound I-421, 1-(4-(3,3-dimethylpyrrolidin-1-yl)pyridin-2-yl)-N-(1-methyl-1H-indazol-7-yl)-1H-pyrazole-4-sulfonamide], the pIC50 in test [1] (setting [2]) was above 6.40; at Avi-tagged FL MALT-1, below 5.60.

As for `COc1ncc2cnn(C)c2c1NS(=O)(=O)c1cnn(-c2cc(C(C)OC)ccn2)c1` (single isomer, unassigned) [Compound I-272, N-(6-methoxy-1-methyl-1H-pyrazolo[4,3-c]pyridin-7-yl)-1-(4-(1-methoxyethyl)pyridin-2-yl)-1H-pyrazole-4-sulfonamide], the pIC50 in test [1] (setting [2]) is above 6.40; on Avi-tagged FL MALT-1, at least 6.40.

In the case of `CCC(O)(CC)c1ccnc(-n2cc(S(=O)(=O)Nc3c(OC)ccc4cnn(C)c34)cn2)c1` [Compound I-279, 1-[4-(3-hydroxypentan-3-yl)pyridin-2-yl]-N-(6-methoxy-1-methylindazol-7-yl)pyrazole-4-sulfonamide], the pIC50 (in test [1] (setting [2]); on Avi-tagged FL MALT-1) was 6.00 to 6.40 each time.

For `Cn1ncc2cccc(NS(=O)(=O)c3cnn(-c4cc([C@]5(O)C[C@H](C)C5)ccn4)c3)c21` [Compound I-288, 1-(4-((1r,3r)-1-hydroxy-3-methyl-cyclobutyl)pyridin-2-yl)-N-(1-methyl-1H-indazol-7-yl)-1H-pyrazole-4-sulfonamide], the pIC50 is above 6.40 in test [1] (setting [2]) and below 5.60 against Avi-tagged FL MALT-1.

For `Cn1ncc2cccc(NS(=O)(=O)c3cnn(-c4cnn5c4COCCC5)c3)c21` [Compound I-447, 1-(7,8-Dihydro-4H,6H-Pyrazolo[5,1-C][1,4]Oxazepin-3-yl)-N-(1-Methyl-1H-Indazol-7-yl)-1H-Pyrazole-4-Sulfonamide], the negative-log IC50 (pIC50) in test [1] (setting [2]) was 6.00 to 6.40; against Avi-tagged FL MALT-1 it was below 5.60.

Consider `COc1ccc2cnn(C)c2c1NS(=O)(=O)c1cnn(-c2cncc(C(F)(F)F)c2)c1` [Compound I-23, N-(6-Methoxy-1-Methyl-1H-Indazol-7-yl)-1-(5-(Trifluoromethyl)Pyridin-3-yl)-1H-Pyrazole-4-Sulfonamide], for which the pIC50 in test [1] (setting [2]) was above 6.40; against Avi-tagged FL MALT-1, at least 6.40.

Regarding `COc1ccc2cnn(C)c2c1NS(=O)(=O)c1cnn(-c2cc(N3CC4CC4C3)ccn2)c1` (stereo not drawn) [Compound I-417], the pIC50 is above 6.40 in test [1] (setting [2]) and below 5.60 against Avi-tagged FL MALT-1.

Take `O=S(=O)(c1cnn(-c2cc(C(F)(F)F)ccn2)c1)N1CCn2ncc3cccc1c32` [Compound I-355, 1-((1-(4-(trifluoromethyl)pyridin-2-yl)-1H-pyrazol-4-yl)sulfonyl)-2,3-dihydro-1H-pyrazolo[1,5,4-de]quinoxaline]: the pIC50 (in test [1] (Jurkat); against Avi-tagged FL MALT-1) was below 5.60 in each case.

On to `CC[C@@H](OC)c1ccnc(-n2cc(S(=O)(=O)Nc3c(OC)ccc4cnn(C)c34)cn2)c1` [Compound I-318, N-(6-methoxy-1-methylindazol-7-yl)-1-{4-[(1R)-1-methoxypropyl]pyridin-2-yl}pyrazole-4-sulfonamide], for which the pIC50 in test [1] (setting [2]) is above 6.40; against Avi-tagged FL MALT-1, at least 6.40.

Turning to `CCc1ccc2cnn(C)c2c1NS(=O)(=O)c1cnn(-c2ccc(OC)cn2)c1` [Compound I-42, N-(6-Ethyl-1-Methyl-1H-Indazol-7-yl)-1-(5-Methoxypyridin-2-yl)-1H-Pyrazole-4-Sulfonamide], the pIC50 (in test [1] (setting [2]); against Avi-tagged FL MALT-1) was 6.00 to 6.40 in each case.

Consider `Cn1ncc2cccc(NS(=O)(=O)c3cnn(-c4cnn5c4COCC5)c3)c21` [Compound I-464, N-(1-methylindazol-7-yl)-1-{4H,6H,7H-pyrazolo[3,2-c][1,4]oxazin-3-yl}pyrazole-4-sulfonamide], for which the pIC50 was 6.00 to 6.40 in test [1] (setting [2]) and below 5.60 against Avi-tagged FL MALT-1.

On to `COc1ncc2cnn(C)c2c1NS(=O)(=O)c1cnn(-c2cc(C(C)(C)C)ccn2)c1` [Compound I-127, 1-(4-(tert-butyl)pyridin-2-yl)-N-(6-methoxy-1-methyl-1H-pyrazolo[4,3-c]pyridin-7-yl)-1H-pyrazole-4-sulfonamide], for which the pIC50 was above 6.40 in test [1] (setting [2]) and at least 6.40 on Avi-tagged FL MALT-1.

For `CCc1ccc2cnn(C)c2c1NS(=O)(=O)c1cnn(-c2ccnc(C3CC3)c2)c1` [Compound I-33, 1-(2-Cyclopropylpyridin-4-yl)-N-(6-ethyl-1-Methyl-1H-Indazol-7-yl)-1H-Pyrazole-4-Sulfonamide], the results for the pIC50 (in test [1] (setting [2]); on Avi-tagged FL MALT-1) were above 6.40 and at least 6.40, respectively.

On to `Cn1ncc2ccc(C3CC3)c(NS(=O)(=O)c3cnn(-c4ccnc(C(F)(F)F)c4)c3)c21` [Compound I-21, N-(6-cyclopropyl-1-Methyl-1H-Indazol-7-yl)-1-(2-(Trifluoromethyl)Pyridin-4-yl)-1H-Pyrazole-4-Sulfonamide], for which the results for the pIC50 (in test [1] (setting [2]); against Avi-tagged FL MALT-1) were above 6.40 and at least 6.40, respectively.

With `COCC(F)(COC)c1ccnc(-n2cc(S(=O)(=O)Nc3cccc4cnn(C)c34)cn2)c1` [Compound I-289], the pIC50 (in test [1] (setting [2]); on Avi-tagged FL MALT-1) was below 5.60 throughout.

On to `COc1ccc2cnn(C)c2c1NS(=O)(=O)c1cnn(-c2cc(N3CC[C@@H](F)C3)ccn2)c1` [Compound I-423], for which the pIC50 in test [1] (setting [2]) was above 6.40; against Avi-tagged FL MALT-1 it was below 5.60.

Regarding `Cn1ncc2ccc(C3CC3)c(NS(=O)(=O)c3cnn(-c4ccc(C(F)(F)F)cn4)c3)c21` [Compound I-20, N-(6-Cyclopropyl-1-Methyl-1H-Indazol-7-yl)-1-(5-(Trifluoromethyl)Pyridin-2-yl)-1H-Pyrazole-4-Sulfonamide], the pIC50 (in test [1] (setting [2]); on Avi-tagged FL MALT-1) was 5.60 to 6.00 in each case.

On to `COc1ccc2cnn(C)c2c1NS(=O)(=O)c1cnn(-c2cc(C(F)(F)F)ccn2)c1` [Compound I-72, N-(6-Methoxy-1-(Methyl-D3)-1H-Indazol-7-yl)-1-(4-(Trifluoromethyl)Pyridin-2-yl)-1H-Pyrazole-4-Sulfonamide], for which the pIC50 in test [1] (setting [2]) is above 6.40; at Avi-tagged FL MALT-1, at least 6.40.

Consider `CCc1ccc2cnn(C)c2c1NS(=O)(=O)c1cnn(-c2ccc(C(F)(F)F)cn2)c1` [Compound I-1, 3N-(6-Ethyl-1-Methyl-1H-Indazol-7-yl)-1-(5-(Trifluoromethyl)Pyridin-2-yl)-1H-Pyrazole-4-Sulfonamide], for which the pIC50 in test [1] (setting [2]) was above 6.40; against Avi-tagged FL MALT-1, at least 6.40.

Take `COc1ccc2cnn(C)c2c1NS(=O)(=O)c1cnn(-c2cc(N3CC(OC)C3)ccn2)c1` [Compound I-445]: the pIC50 was above 6.40 in test [1] (setting [2]) and below 5.60 against Avi-tagged FL MALT-1.

In the case of `CCC(O)(CC)c1ccnc(-n2cc(S(=O)(=O)Nc3cccc4cnn(C)c34)cn2)c1` [Compound I-276], the figures for the pIC50 (in test [1] (setting [2]); on Avi-tagged FL MALT-1) were above 6.40 and below 5.60, respectively.

On to `COC[C@@H](O)c1ccnc(-n2cc(S(=O)(=O)Nc3cccc4cnn(C)c34)cn2)c1` [Compound I-304], for which the pIC50 in test [1] (setting [2]) is 6.00 to 6.40; against Avi-tagged FL MALT-1, below 5.60.

With `COc1ncc2cnn(C)c2c1NS(=O)(=O)c1cnn(-c2cc(C(C)(C)O)ccn2)c1` [Compound I-260, 1-(4-(2-hydroxypropan-2-yl)pyridin-2-yl)-N-(6-methoxy-1-methyl-1H-pyrazolo[4,3-c]pyridin-7-yl)-1H-pyrazole-4-sulfonamide], the pIC50 (in test [1] (setting [2]); against Avi-tagged FL MALT-1) was 6.00 to 6.40 throughout.

For the compound `COc1ccc2cnn(C)c2c1NS(=O)(=O)c1cnn(-c2cc(C3(C#N)CCC3)ccn2)c1` [Compound I-457, 1-(4-(1-Cyanocyclobutyl)Pyridin-2-yl)-N-(6-Methoxy-1-Methyl-1H-Indazol-7-yl)-1H-Pyrazole-4-Sulfonamide], the pIC50 in test [1] (setting [2]) is above 6.40; against Avi-tagged FL MALT-1, 6.00 to 6.40.
